Measured values: patent publication US7432253B2, “Phosphoepoxides, method for making same and uses” (Institut National de la Sante et de la Recherche Medicale, priority 1998, dated 2008)

Tests used:
Tγ9δ2 lymphocytes = test: Bioactivity (induced cytotoxicity test) after transient chemical treatment; assay type: cell-based; set-up: key: + indicates detection of activity upon Tγ9δ2 lymphocytes; − indicates that no activity could be detected; details: diluted 1:30 from 5 to 10 μM solutions
Experimental: The bioactivity of the compound according to the invention Epox-PP (obtained as stated in Example 1) is compared with that of a stock preparation of Tubag natural phosphoantigens obtained as described in WO 95/20673.
Bioactivity is measured by an induced cytotoxicity test as described in Example 6 using the compound to be tested diluted 1:30 from 5 to 10 μM solutions of the compounds.
Before bioactivity is measured, the compounds are subjected to a transient chemical treatment by being brought into contact with one of the following reagents: NaIO4 (5 mM); NaBH3CN (10 mM, pH 7); KMnO4 (1 mM); bromine water Br2, H2O (7 mM), followed by neutralization of the reagent.

Tγ9δ2 lymphocyte clone = test: Induced cytotoxicity test of a Tγ9δ2 lymphocyte clone; assay type: cell-based; details: for concentration at which the compound is active: stimulation of specific cytotoxic activity
human Tγ9δ2 lymphocytes [1] = details: prior art prenyl pyrophosphates, best results obtained; cited from earlier work
human Tγ9δ2 lymphocytes [2] = system: human Tγ9δ2 lymphocytes
mice = test: Toxicity of Epox-PP (sodium salt) in mice, intravenous injection; assay type: in vivo
Experimental: Five 30 g mice received an intravenous injection (caudal vein) of 300 μl of PBS buffer containing 1 mg of Epox-PP (sodium salt). […] Toxicity is thus less than 20% for a dose of 33.4 mg of Epox-PP (sodium salt) per kilogram of animal body weight.

| Substance | Bioactivity after chemical treatment: KMnO4 (1 mM) (Tγ9δ2 lymphocytes; KMnO4 1 mM) | Bioactivity after chemical treatment: NaBH3CN (10 mM pH7) (Tγ9δ2 lymphocytes; NaBH3CN 10 mM pH 7) | Bioactivity after chemical treatment: NaIO4 (5 mM) (Tγ9δ2 lymphocytes; NaIO4 5 mM) | Bioactivity after chemical treatment: Br2, H2O (7 mM) (Tγ9δ2 lymphocytes; bromine water 7 mM) | Bioactivity after chemical treatment: none (Tγ9δ2 lymphocytes; no reagent) | concentration at which the compound is active (Tγ9δ2 lymphocyte clone) [nM] | minimum concentration at which activity could be demonstrated (human Tγ9δ2 lymphocytes [1]) [µM] | minimum active concentration relative to natural phosphoantigens (human Tγ9δ2 lymphocytes [2]) [times higher] | active concentration relative to the compound from Example 1 (Tγ9δ2 lymphocyte clone; IPP versus Epox-PP) [times higher] | sign of shock or pyrogenicity (mice; 1 mg i.v. (caudal vein) per 30 g mouse) | variation in the weight of the mice (mice; 1 mg i.v. per 30 g mouse, during the study) | Toxicity (mice; dose of 33.4 mg per kilogram of animal body weight, i.v.) | mice still alive after 30 days (mice; five mice, 1 mg i.v. per 30 g mouse, 30 days) [mice] |
| --- | --- | --- | --- | --- | --- | --- | --- | --- | --- | --- | --- | --- | --- |
| 3,4-epoxy-3-methyl-1-butyl diphosphate [Epox-PP] | + | + | + | + | + | ~20 |  |  |  |  |  |  |  |
| isopentenylpyrophosphate [IPP] |  |  |  |  |  | ~3000 | ≥ 3 | ~1000 | 150 |  |  |  |  |
| 3,4-epoxy-3-methyl-1-butyl diphosphate [Epox-PP (sodium salt)] |  |  |  |  |  |  |  |  |  | No sign of shock or pyrogenicity | no significant variation | less than 20% | 5 |
